# Reference: patent US6737383B1, “Herbicidal oxadiazolidines” (priority 1999, dated 2004)
# What was measured:
# velvetleaf = assay: Test B pre/postemergence velvetleaf; assay type: in vivo, Abutilon theophrasti
# Summary of the method: (§1)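 Response is a visual 0-to-10 score relative to untreated plants, where 0 means no effect and 10 means complete control, taken twelve to sixteen days after application. Treatments went onto soil at planting and onto foliage of 1- to 4-leaf plants, using a surfactant-containing non-phytotoxic solvent.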
# duck salad = assay: Test B flood test duck salad; assay type: in vivo, Heteranthera limosa; conditions: for Plant response rating, Ducksalad (0 to 10 scale, 0 is no effect, 10 is complete control) / Ducksalad plant response rating (0 to 10 scale, 0 is no effect, 10 is complete control): visual evaluation after twelve to sixteen days; for Ducksalad plant response rating (0 to 10 scale, 0 is no effect, 10 is complete control): under heading Pre-emergence
# Summary of the method: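 Each value is a visual injury score relative to controls, with 10 meaning complete control and 0 no effect. Evaluation took place twelve to sixteen days after the 2-leaf-stage plants were treated and kept in the greenhouse.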
# cocklebur = assay: Test B pre/postemergence cocklebur; assay type: in vivo, Xanthium strumarium
# Summary of the method: as §1
# soybean = assay: Test B pre/postemergence soybean; assay type: in vivo, Glycine max
# Summary of the method: as §1
# [1] = Postemergence, Rate 62 g/ha, scale 0 to 10, 0 is no effect, 10 is complete control
# [2] = Postemergence, Rate 125 g/ha, scale of 0 to 10 where 0 is no effect and 10 is complete control
# [3] = Postemergence, Rate 250 g/ha, scale of 0 to 10, 0 is no effect, 10 is complete control
# [4] = Preemergence, Rate 62 g/ha, scale 0 to 10 (0 no effect, 10 complete control)
# [5] = Preemergence, Rate 125 g/ha, scale of 0 to 10 where 0 is no effect and 10 is complete control
# [6] = Preemergence, Rate 250 g/ha, scale 0 to 10 (0 no effect, 10 complete control)
# [7] = Preemergence, Rate 500 g/ha, scale of 0 to 10 where 0 is no effect and 10 is complete control
# [8] = Rate 62 g/ha, flood test species, Pre-emergence
# [9] = Rate 125 g/ha, flood test species
# [10] = Rate 250 g/ha, Pre-emergence (flood test species), scale 0 to 10, 0 is no effect, 10 is complete control
# [11] = Postemergence, Rate 500 g/ha, scale of 0 to 10 where 0 is no effect and 10 is complete control
# [12] = Postemergence, Rate 125 g/ha, scale 0 to 10, 0 is no effect, 10 is complete control
# [13] = Postemergence, Rate 250 g/ha, scale 0 to 10, 0 is no effect, 10 is complete control
# [14] = Preemergence, Rate 250 g/ha, scale of 0 to 10 where 0 is no effect and 10 is complete control
# [15] = Rate 62 g/ha, Postemergence, scale of 0 to 10 where 0 is no effect and 10 is complete control
# [16] = Rate 500 g/ha, Postemergence, scale 0 to 10, 0 no effect, 10 complete control
# [17] = Rate 250 g/ha, Pre-emergence, flood-test species, scale 0 to 10, 0 is no effect, 10 is complete control
# [18] = Rate 500 g/ha, Pre-emergence, flood test species, scale 0 to 10 (0 no effect, 10 complete control)
# [19] = Postemergence, Rate 250 g/ha, scale 0 to 10
# [20] = Preemergence, Rate 62 g/ha, scale of 0 to 10 where 0 is no effect and 10 is complete control
# [21] = Preemergence, Rate 250 g/ha, scale 0 to 10, 0 is no effect, 10 is complete control
# [22] = Preemergence, Rate 500 g/ha, scale 0 to 10, 0 is no effect, 10 is complete control
# [23] = Rate 62 g/ha, Postemergence, scale 0 to 10 (0 no effect, 10 complete control)
# [24] = Rate 125 g/ha, Postemergence, scale 0 to 10, 0 is no effect, 10 is complete control
# [25] = Postemergence, Rate 31 g/ha, visual rating, scale 0 to 10 (0 no effect, 10 complete control)
# [26] = Rate 125 g/ha, Postemergence, scale of 0 to 10 where 0 is no effect and 10 is complete control
# [27] = Rate 125 g/ha, Preemergence, scale of 0 to 10 where 0 is no effect and 10 is complete control
# [28] = Rate 250 g/ha, Postemergence, scale of 0 to 10 where 0 is no effect and 10 is complete control
# [29] = Rate 62 g/ha, headed Pre-emergence (flood test species), scale 0 to 10 (0 no effect, 10 complete control)
# [30] = Rate 125 g/ha, Pre-emergence, flood test species, scale 0 to 10 where 0 is no effect and 10 is complete control
smiles,measurement,setting,value
CC(C)N(C(=O)n1oc(=O)n(CNC(=O)c2ccccc2)c1=O)c1ccccc1 [Compound 620],"Plant response rating, Velvetleaf",velvetleaf; [1],0
same,"Plant response rating, Velvetleaf",velvetleaf; [2],0
same,Velvetleaf plant response rating,velvetleaf; [3],0
same,Velvetleaf plant response rating,velvetleaf; [4],0
same,Velvetleaf plant response rating,velvetleaf; [5],0
same,"Plant response rating, Velvetleaf",velvetleaf; [6],0
same,"Plant response rating, Velvetleaf",velvetleaf; [7],0
same,"Plant response rating, Ducksalad (0 to 10 scale, 0 is no effect, 10 is complete control)",duck salad; [8],0
same,"Ducksalad plant response rating (0 to 10 scale, 0 is no effect, 10 is complete control)",duck salad; [9],0
same,Ducksalad plant response rating,duck salad; [10],0
same,Ducksalad plant response rating,"duck salad; Rate 500 g/ha, Pre-emergence section of Table B, 0 to 10 scale (0 no effect, 10 complete control)",0
same,"Plant response rating, Cocklebur",cocklebur; [1],0
same,"Plant response rating, Cocklebur",cocklebur; [2],0
same,Cocklebur plant response rating,cocklebur; [3],0
same,"Plant response rating, Cocklebur",cocklebur; [11],0
same,Cocklebur plant response rating,cocklebur; [4],0
same,Cocklebur plant response rating,cocklebur; [5],0
same,"Plant response rating, Cocklebur",cocklebur; [6],0
same,"Plant response rating, Cocklebur",cocklebur; [7],0
same,"Plant response rating, Soybean",soybean; [1],1
same,"Plant response rating, Soybean",soybean; [2],1
same,Soybean plant response rating,soybean; [3],1
same,Soybean plant response rating,soybean; [4],0
same,Soybean plant response rating,soybean; [5],0
same,"Plant response rating, Soybean",soybean; [6],0
same,"Plant response rating, Soybean",soybean; [7],0
Cc1nnsc1Cn1c(=O)on(C(=O)N(c2ccc(F)cc2)C(C)C)c1=O [Compound 380],"Plant response rating, Velvetleaf",velvetleaf; [12],0
same,"Plant response rating, Velvetleaf",velvetleaf; [13],0
same,"Plant response rating, Velvetleaf",velvetleaf; [4],0
same,Velvetleaf plant response rating (0 to 10 scale),"velvetleaf; Preemergence, Rate 125 g/ha",0
same,Velvetleaf plant response rating,velvetleaf; [14],0
same,Velvetleaf plant response rating,velvetleaf; [7],0
same,Velvetleaf plant response rating,velvetleaf; [15],0
same,"Plant response rating, Velvetleaf",velvetleaf; [16],3
same,"Plant response rating, Ducksalad (0 to 10 scale, 0 is no effect, 10 is complete control)",duck salad; [8],0
same,"Ducksalad plant response rating (0 to 10 scale, 0 is no effect, 10 is complete control)",duck salad; [9],0
same,Ducksalad plant response rating,duck salad; [17],0
same,Ducksalad plant response rating,duck salad; [18],0
same,"Plant response rating, Cocklebur",cocklebur; [12],0
same,"Plant response rating, Cocklebur",cocklebur; [13],0
same,"Plant response rating, Cocklebur",cocklebur; [4],0
same,Cocklebur plant response rating (0 to 10 scale),"cocklebur; Preemergence, Rate 125 g/ha",0
same,Cocklebur plant response rating,cocklebur; [14],0
same,Cocklebur plant response rating,cocklebur; [15],0
same,"Plant response rating, Cocklebur",cocklebur; [16],6
same,"Plant response rating, Soybean",soybean; [12],1
same,"Plant response rating, Soybean",soybean; [13],1
same,"Plant response rating, Soybean",soybean; [4],0
same,Soybean plant response rating (0 to 10 scale),"soybean; Preemergence, Rate 125 g/ha",0
same,Soybean plant response rating,soybean; [14],0
same,Soybean plant response rating,soybean; [7],0
same,Soybean plant response rating,soybean; [15],0
same,"Plant response rating, Soybean",soybean; [16],1
CC(C)N(C(=O)n1oc(=O)n(CCCl)c1=O)c1ccccc1 [Compound 469],Velvetleaf plant response rating,velvetleaf; [19],0
same,"Plant response rating, Velvetleaf",velvetleaf; [20],4
same,"Plant response rating, Velvetleaf",velvetleaf; [5],5
same,Velvetleaf plant response rating,velvetleaf; [21],6
same,Velvetleaf plant response rating,velvetleaf; [22],7
same,Velvetleaf plant response rating,velvetleaf; [23],0
same,Velvetleaf plant response rating,velvetleaf; [24],0
same,"Plant response rating, Ducksalad (0 to 10 scale, 0 is no effect, 10 is complete control)",duck salad; [8],0
same,"Ducksalad plant response rating (0 to 10 scale, 0 is no effect, 10 is complete control)",duck salad; [9],0
same,Ducksalad plant response rating,duck salad; [10],0
same,Ducksalad plant response rating,duck salad; [18],0
same,Cocklebur plant response rating,cocklebur; [19],0
same,Cocklebur plant response rating,cocklebur; [11],3
same,"Plant response rating, Cocklebur",cocklebur; [20],0
same,"Plant response rating, Cocklebur",cocklebur; [5],0
same,Cocklebur plant response rating,cocklebur; [21],0
same,Cocklebur plant response rating,cocklebur; [22],0
same,Cocklebur plant response rating,cocklebur; [23],0
same,Cocklebur plant response rating,cocklebur; [24],0
same,Soybean plant response rating,soybean; [19],4
same,"Plant response rating, Soybean",soybean; [20],0
same,"Plant response rating, Soybean",soybean; [5],0
same,Soybean plant response rating,soybean; [21],0
same,Soybean plant response rating,soybean; [22],2
same,Soybean plant response rating,soybean; [23],0
same,Soybean plant response rating,soybean; [24],1
CC(C)N(C(=O)n1oc(=O)n(C(C)C)c1=O)c1cnccn1 [Compound 296],Velvetleaf plant response rating,velvetleaf; [25],0
same,Velvetleaf plant response rating,velvetleaf; [20],0
same,Velvetleaf plant response rating,velvetleaf; [14],0
same,Velvetleaf plant response rating,velvetleaf; [23],0
same,Velvetleaf plant response rating,velvetleaf; [26],0
same,Velvetleaf plant response rating,velvetleaf; [27],0
same,"Plant response rating, Velvetleaf",velvetleaf; [28],0
same,Ducksalad plant response rating,"duck salad; Rate 31 g/ha, Pre-emergence section (flood test species), scale 0 to 10",0
same,Ducksalad plant response rating,duck salad; [29],0
same,Ducksalad plant response rating,duck salad; [30],0
same,Ducksalad plant response rating,duck salad; [17],0
same,Cocklebur plant response rating,cocklebur; [25],0
same,Cocklebur plant response rating,"cocklebur; Preemergence, Rate 31 g/ha, visual rating, scale 0 to 10 (0 no effect, 10 complete control)",0
same,Cocklebur plant response rating,cocklebur; [20],0
same,Cocklebur plant response rating,cocklebur; [14],0
same,Cocklebur plant response rating,cocklebur; [23],0
same,Cocklebur plant response rating,cocklebur; [26],0
same,Cocklebur plant response rating,cocklebur; [27],0
same,"Plant response rating, Cocklebur",cocklebur; [28],0
same,Soybean plant response rating,soybean; [25],0
same,Soybean plant response rating,soybean; [20],0
same,Soybean plant response rating,soybean; [14],0
same,Soybean plant response rating,soybean; [23],0
same,Soybean plant response rating,soybean; [26],0
same,Soybean plant response rating,soybean; [27],0
same,"Plant response rating, Soybean",soybean; [28],1
CC(C)N(C(=O)n1oc(=O)n(C(C)Cl)c1=O)c1ccccc1 (centres unmarked) [Compound 438],Velvetleaf plant response rating,velvetleaf; [19],0
same,Velvetleaf plant response rating,velvetleaf; [11],0
same,"Plant response rating, Velvetleaf",velvetleaf; [20],0
same,"Plant response rating, Velvetleaf",velvetleaf; [5],0
same,Velvetleaf plant response rating,velvetleaf; [21],5
same,Velvetleaf plant response rating,velvetleaf; [22],6
same,Velvetleaf plant response rating,velvetleaf; [23],0
same,Velvetleaf plant response rating,velvetleaf; [24],0
same,"Plant response rating, Ducksalad (0 to 10 scale, 0 is no effect, 10 is complete control)",duck salad; [8],0
same,"Ducksalad plant response rating (0 to 10 scale, 0 is no effect, 10 is complete control)",duck salad; [9],0
same,Ducksalad plant response rating,duck salad; [10],0
same,Ducksalad plant response rating,duck salad; [18],0
same,Cocklebur plant response rating,cocklebur; [19],3
same,Cocklebur plant response rating,cocklebur; [11],3
same,"Plant response rating, Cocklebur",cocklebur; [20],0
same,"Plant response rating, Cocklebur",cocklebur; [5],0
same,Cocklebur plant response rating,cocklebur; [21],0
same,Cocklebur plant response rating,cocklebur; [22],0
same,Cocklebur plant response rating,cocklebur; [23],0
same,Cocklebur plant response rating,cocklebur; [24],0
same,Soybean plant response rating,soybean; [19],2
same,Soybean plant response rating,soybean; [11],6
same,"Plant response rating, Soybean",soybean; [20],0
same,"Plant response rating, Soybean",soybean; [5],0
same,Soybean plant response rating,soybean; [21],0
same,Soybean plant response rating,soybean; [22],2
same,Soybean plant response rating,soybean; [23],1
same,Soybean plant response rating,soybean; [24],1
Cc1ccccc1-n1c(=O)on(C(=O)N(c2ccc(OC(F)(F)F)cc2)C(C)C)c1=O [Compound 300],Velvetleaf plant response rating,velvetleaf; [20],0
same,Velvetleaf plant response rating (0 to 10 scale),"velvetleaf; Preemergence, Rate 125 g/ha",0
same,Velvetleaf plant response rating,velvetleaf; [14],0
same,Velvetleaf plant response rating,velvetleaf; [7],0
same,Velvetleaf plant response rating,velvetleaf; [23],0
same,Velvetleaf plant response rating,velvetleaf; [26],0
same,"Plant response rating, Velvetleaf",velvetleaf; [28],0
same,Ducksalad plant response rating,duck salad; [29],0
same,Ducksalad plant response rating,duck salad; [30],0
same,Ducksalad plant response rating,duck salad; [17],0
same,Ducksalad plant response rating,duck salad; [18],0
same,Cocklebur plant response rating,cocklebur; [20],0
same,Cocklebur plant response rating (0 to 10 scale),"cocklebur; Preemergence, Rate 125 g/ha",0
same,Cocklebur plant response rating,cocklebur; [14],0
same,Cocklebur plant response rating,cocklebur; [23],0
same,Cocklebur plant response rating,cocklebur; [26],0
same,"Plant response rating, Cocklebur",cocklebur; [28],0
same,Cocklebur plant response rating,cocklebur; [16],0
same,Soybean plant response rating,soybean; [20],0
same,Soybean plant response rating (0 to 10 scale),"soybean; Preemergence, Rate 125 g/ha",0
same,Soybean plant response rating,soybean; [14],0
same,Soybean plant response rating,soybean; [7],0
same,Soybean plant response rating,soybean; [23],1
same,Soybean plant response rating,soybean; [26],2
same,"Plant response rating, Soybean",soybean; [28],2
